Measured values as given in patent US20100143262A1, “Method for Identifying Allergenic Proteins And Peptides” (priority 2008, published 2010).

Columns and labels:
patients' serum IgE = assay: microarray IgE reactivity testing of ALA-derived peptides; assay type: binding, human; settings: sera from the 36 patients with IgE reactivity to rALA
Method: IgE reactivity testing to ALA-derived peptides:IgE reactivities of the ALA-derived peptides were determined by microarray analysis as described (Schulmeister et al., J Immunol. 182(11):7019-29). In brief, milk components were spotted onto a capillary-flow membrane on an ordinary microscope glass slide and incubated with 25 μl of patients' sera. Bound IgE antibodies were detected with a fluorescence-conjugated anti-IgE antibody at a wavelength of 670 nm. The cut off level was set for each patient as the double value of the individual value gained with human serum albumin.
In order to identify IgE-reactive epitopes of ALA, we synthesized 8 peptides spanning the ALA sequence (Table 2). […] The IgE reactivity of the 8 overlapping peptides was evaluated by microarray analysis using sera from the 36 patients showing IgE reactivity to rALA. […] In total 19 of the 36 patients with IgE reactivity to rALA reacted at least with one ALA-derived synthetic peptide.

[1] = system: Humanized Rat Basophil Leukaemia (RBL) cells (clone RBL-703/21); assay: human RBL assay: β-hexosaminidase release of humanized RBL cells loaded with patients' serum IgE; assay type: cell-based; settings: for biological activity (% of patients): percentage of 78 patients' sera triggering β-hexosaminidase release, milk components 0.3 μg/ml; for extent of degranulation relative to the activity of the complete protein: synthetic alphaS1-casein-derived peptides
Text: A scientifically approved model to test biological reactivity of molecules is induction of histamine release from human basophil granulocytes (Purohit 2005). For this purpose a rat basophil leukaemia cell line expressing the α-chain of the human FcεRI receptor (Hoffmann et al., Int Arch Allergy Immunol, Vol 126(4), p. 277-285) was used. Different milk components (n=33) including whole milk extracts from different species, milk fractions, purified natural and recombinant cow's milk proteins, and recombinant protein fragments were tested. The percentages of 78 patients whose serum IgE antibodies trigger β-hexosaminidase release of the humanized RBL cells in response to the individual milk components were determined (FIG. 3).
(§1) Sera from 78 patients who were selected according to a positive case history, positive skin-prick reactions and determination of specific IgE to cow's milk extract using the CAP-FEIA System (Phadia, Uppsala, Sweden) were used. Sera were obtained from five adults and 73 children (30 female and 43 male) from Austria, Germany, Italy, Spain and France.
Humanized Rat Basophil Leukaemia (RBL) cells (clone RBL-703/21) were incubated in microtiter plates overnight at 37° C. (7% CO2, 95% humidity) with 50 μl human sera, diluted 1:10. Afterwards cells were washed and exposed to milk components, diluted to 0.3 μg/ml protein in Tyrodes buffer containing 50% D2O and 0.1% BSA/HAS for 1 hour at 37° C. (7% CO2, 95% humidity). Spontaneous release of the cells was also evaluated. Finally, the cell supernatants were incubated with 50 μl assay solution (0.1 M citric acid or sodium citrate, pH 4.5, 160 μM 4-methyl umbelliferyl-N-acetyl-β-D-glucosaminide) in new microtiter plates at 37° C. (7% CO2, 95% humidity) for 1 h. The reactions were stopped by addition of 100 μl glycine buffer per well and the fluorescence measured at λex: 360 and λem: 465 using a fluorescence microplate reader. The specific hexosaminidase release of each sample was calculated using the formula: [(FlS−FlSp):(FlZ−FlSp)]×100 (where […] is the fluorescence of the sample; FlSp is the fluorescence of the spontaneous release and FlZ is the fluorescence of the total release).

[2] = system: serum IgE of cow's milk allergic patients; assay: IgE binding capacity (IgE reactivity) of milk components with patients' sera; set-up: species or system human; settings: sera of cow's milk allergic patients (n=78)
Text: as §1

[3] = system: IgE of sera from cow's milk allergic patients; assay: dot blot IgE reactivity of nitrocellulose-dotted milk components; assay type: binding, human; settings: 1 μg dotted; sera from three cow's milk allergic patients, 1:20
Text: In FIG. 6 a Mascot search and the identification of beta-casein-derived peptides in hydrolyzed cow's milk is depicted. At the top beta-casein, the only identified milk allergen in mass spectrometry, is mentioned with its molecular mass and calculated pI. Below the search parameters and the obtained sequence coverage of beta-casein are given. […] The beta-casein allergen was identified with peptide matches: HQPHQPLPPT (calculated mass of 1.25 kDa, corresponding to aa 160-170 of beta-casein), VYPFPGPIPN (calculated mass of 1.19 kDa, corresponding to aa 74-84 of beta-casein), SSSEE (calculated mass of 0.65 kDa, corresponding to aa 31-36 of beta-casein), and PVVVPP (calculated mass of 0.87 kDa, corresponding to aa 96-103 of beta-casein). In FIG. 7 IgE reactivity testing of these peptides is shown (Table 1: cas b-1, 2, 3 and 4; FIG. 7). […] IgE reactivity of nitrocellulose-dotted cow's milk (CM), recombinant beta-casein (rBC), synthetic beta-casein-derived peptides (cas b-1, cas b-2, cas b-3, cas b-4), and recombinant alphaS1-casein (rAS1C) were analysed by dot blot assay. Nitrocellulose-bound milk components were incubated with the sera from three cow's milk allergic patients (lanes 1, 2 and 3) and a non-allergic individual (lane C). Bound IgE antibodies were detected with ^125I-labeled anti-IgE antibodies. […] Furthermore, they are different from the published major IgE binding regions of beta-casein (aa 1-16, aa 83-92, aa 135-144; Chatchatee 2001). None of the other IgE-reactive milk allergens and allergen fragments obtained by screening of the cDNA expression library (FIG. 1) were detected in the hydrolyzed milk sample which therefore could be identified as a non-allergenic preparation.
Hydrolyzed milk formula was analyzed by reversed-phase HPLC using a nano liquid chromatography system (Ultimate, LC Packings Dionex, The Netherlands) connected to the nanospray interface of a HCT-Ultra mass spectrometer (Bruker Daltonik, Germany). The obtained mass spectra were searched against the SwissProt protein databank using MASCOT (Matrix Science, London, United Kingdom) software search algorithms. For dot blot analysis 1 μg of protein was dotted onto nitrocellulose, and incubated with sera from milk allergic patients diluted 1:20 in PBST (PBS, 0.5% v/v Tween 20). Bound IgE antibodies were detected with 1:15 diluted ^125I-labelled anti-human IgE antibodies (IBL, Germany).

| IgE binding (% of patients) (patients' serum IgE) | IgE binding (% of patients) [2] | Substance | biological activity (% of patients) [1] | further results |
| --- | --- | --- | --- | --- |
| 0 % of patients | – | TFHTSGYDTQA1YQNNDSTE (TFHTSGYDTQAIYQNNDSTE) [Lac3, synthetic ALA-derived peptide] | – | – |
| 5.6 % of patients | – | NDSTEYGLFQINNK1WCKDD (NDSTEYGLFQINNKIWCKDD) [Lac4, synthetic ALA-derived peptide] | – | – |
| – | 1.3 % of patients | sheep serum albumin [SSA] | 2.6 % of patients | – |
| – | 41.0 % of patients | CPMIGVNQELAYFYPELFRQFYQLDAYPSGAWYYV [Cas 5, synthetic peptide of αS1-casein] | 5.1 % of patients | extent of degranulation relative to the activity of the complete protein [1]: about a tenth |
| – | 51.3 % of patients | beta-lactoglobulin variant B [BLGB] | 19.2 % of patients | – |
| 2.8 % of patients | – | WCKDDQNPHSSNICNISCDK [Lac5, synthetic ALA-derived peptide] | – | – |
| – | 35.9 % of patients | CLKKYKVPQLEIVPNSAEERLHSMKEGIHIAQQKE [Cas 4, synthetic peptide of αS1-casein] | 3.8 % of patients | extent of degranulation relative to the activity of the complete protein [1]: about a tenth |
| – | 43.6 % of patients | RPKHPIKHQGLPQEVLNENLLRFFVAPFPEVC [Cas 1, synthetic peptide of αS1-casein] | 6.4 % of patients | – |
| – | – | HQPHQPLPPTV [cas b-1, synthetic peptide of β-casein] | – | IgE reactivity (dot blot) [3]: not IgE-reactive |
| – | 6.4 % of patients | bovine serum albumin [BSA] | 2.1 % of patients | – |
| – | 21.8 % of patients | recombinant kappa-casein [rKC] | 6.4 % of patients | – |
| – | – | PVVVPPFL [cas b-4, synthetic peptide of β-casein] | – | IgE reactivity (dot blot) [3]: not IgE-reactive |
| – | 23.1 % of patients | recombinant beta-lactoglobulin [rBLG] | 12.8 % of patients | – |
| 2.8 % of patients | – | ISCDKFLDDDLTDDIMCVKK [Lac6, synthetic ALA-derived peptide] | – | – |
| 30.6 % of patients | – | EQLTKCEVFRELKDLKGYG [Lac1, synthetic ALA-derived peptide] | – | – |
| – | 46.2 % of patients | ISSSEEIVPNSVEQKHIQKEDVPSERYLGYEQLLRC [Cas 3, synthetic peptide of αS1-casein] | 2.6 % of patients | extent of degranulation relative to the activity of the complete protein [1]: about a tenth |
| – | 50.0 % of patients | alpha-casein [AC] | 25.6 % of patients | – |
| – | – | VYPFPGPIIPNS [cas b-2, synthetic peptide of β-casein] | – | IgE reactivity (dot blot) [3]: not IgE-reactive |
| 11.1 % of patients | – | LAHKALCSEKLDQWLCEKL [Lac8, synthetic ALA-derived peptide] | – | – |
| 33.3 % of patients | – | LKGYGGVSLPEWVCTTFHTS [Lac2, synthetic ALA-derived peptide] | – | – |
| – | 65.4 % of patients | alpha-lactalbumin [ALA] | 11.5 % of patients | – |
| 2.8 % of patients | – | MCVKKILDKVGINYWLAHKA [Lac7, synthetic ALA-derived peptide] | – | – |
| – | – | LSSSEE [cas b-3, synthetic peptide of β-casein] | – | IgE reactivity (dot blot) [3]: not IgE-reactive |
| – | 30.8 % of patients | kappa-casein [KC] | 25.6 % of patients | – |
| – | 15.4 % of patients | FGKEKVNELSKDIGSESTEDQAMEDIKQMEAES [Cas 2, synthetic peptide of αS1-casein] | 3.8 % of patients | extent of degranulation relative to the activity of the complete protein [1]: one fourth |
| – | 37.2 % of patients | PLGTQYTDAPSFSDIPNPIGSENSEKTTMPLWC [Cas 6, synthetic peptide of αS1-casein] | 7.7 % of patients | extent of degranulation relative to the activity of the complete protein [1]: one fourth |

| Substance | IgE binding (% of patients) (patients' serum IgE) | IgE binding (% of patients) [2] | biological activity (% of patients) [1] | further results |
| --- | --- | --- | --- | --- |
| recombinant alpha-lactalbumin [rALA] | 100.0 % of patients | 25.6 % of patients | 21.8 % of patients | release compared with natural counterpart ([1]; recombinant versus natural alpha-lactalbumin): much higher release than its natural counterpart |
